# Measured values as given in EP1105728B1, “MODULATING MULTIPLE LINEAGE KINASE PROTEINS” (CEPHALON, INC., priority 1998, dated 2000).
# Read-outs that look alike come from different tables or passages of the source.
# Assays:
# MLK-3 = target: T1, MLK-3 (Homo sapiens, UniProt Q16584); assay: JNK activity (immunoprecipitation/kinase assay) in Cos7 cells overexpressing MLK-3 and HA-JNK1; type: cell-based; details: COS-7
# T1 construct: A full length cDNA of human MLK-3, MLK-2, or mouse DLK; expressed in transfected cells; host or cells: Cos7
# Experimental: Cos7 cells were plated at 80% confluency and transfected with 2 ug each of cDNA constructs using lipofectamine as recommended by the provider (Gibco BRL, Gaithersburg, MD). A full length cDNA of human MLK-3, MLK-2, or mouse DLK or a partial human MLK-1 as described above, and a full length Hemagluttinin A-tagged human JNK1, kindly provided by J. Silvio Gutkind (NIH, Bethesda, MD), were subcloned into the pcDNA3 vector (Invitrogen, San Diego, CA). […] JNK activity from the lysate was assayed by an immunoprecipitation/kinase assay as described below.
# Lysate from Cos 7 cells was measured for protein concentration using the Micro BCA kit from Pierce (Rockford, IL) and equal amounts of protein were immunoprecipitated with the HA antibody for 1 hr at 4°C. Immunoprecipitates were pelleted by centrifugation in a microfuge centrifuge for 20 sec, resuspended in Triton buffer, washed by centrifugation 2 more times, followed by a final wash in Kinase buffer (20 mM Hepes pH 7.4,20 mM MgCl2, 2 mM dithiothreitol, 0.1 mM sodium vanadate). The immunoprecipitate was resuspended in kinase buffer containing 1 µM ATP and 5 µCi [γ-^32P]ATP and substrate (1 µg/sample of AP-1 ) and incubated for 15 min at 30°C. […] Samples were heated to 80°C for 5 min and loaded onto 10% SDS-polyacrylamide gels. Proteins were separated by electrophoresis. The gel was dried and quantitation of radioactivity in the AP-1 substrate was performed on a Molecular Dynamics Phosphorimager (Sunnyvale, Ca.).
# To determine whether inhibition of the JNK pathway regulated by these kinases correlated with neurotrophic compounds, we evaluated the effect of compounds on JNK activity in Cos7 cells overexpressing HA-JNK and MLK3. After a 48 hr transfection period, the cells were incubated with compounds at 500 nM for 2hr followed by cellular lysis. Lysate was immunoprecipitated and kinase activity measured as previously described. […]
# motoneurons = assay: Survival of rat spinal cord cultures enriched for motoneurons (calcein AM); type: cell-based; details: data not shown
# Experimental: Spinal cords were dissected from Sprague-Dawley rat fetuses (Charles River Laboratories, Wilmington. MA) of embryonic age (E) 14.5-15. […] Cells were seeded onto 96-well plates previously coated with poly-1-omithine and laminin (5 ug/ml each) at a density of 6 x 10^4 cells/cm^2 in chemically defined serum-free N2 medium (Bottenstein, et al., 1979, supra). In order to separate attachment from survival effects, addition of compounds to cultures was made after an initial attachment period of 1-3 h. Neuronal survival was assessed after 4 d by using calcein AM (Molecular Probes, Eugene, OR) in a fluorometric viability assay (Bozyczko-Coyne, et al., 1993, supra). Microscopic counts of neurons correlated directly with relative fluorescence values. In brief, culture medium was serially diluted in DPBS (Dulbeccos phosphate buffered saline) and a final concentration of 6 uM calcein AM stock was then added to each 96-well. The plates were incubated for 30 min at 37°C, followed by serial dilution washes in DPBS. The fluorescent signal was read using a plate-reading fluorimeter from Millipore (Cytofluor 2350) at excitation=485 nm and emission = 538 nm. […] Linearity of the fluorescence signal was verified for the concentration and incubation time for the range of cell densities in these experiments. […]
# chick motoneurons = assay: Survival of chick embryonic motoneurons; type: cell-based
# Experimental: Motoneurons (embryonic day 5.5) were isolated with an immunological method according to the procedure set forth in Bloch-Gallego, et al., Development, 1991, 111, 221-232, which is incorporated herein by reference in its entirety, with modifications as described in Weng, et al., NeuroReport, 1996, 7, 1077-1081, which is incorporated herein by reference in its entirety. Purified motoneurons were seeded onto 35 mm tissue culture dishes (Nunc) pre-coated with poly-DL-omithine and laminin (1 µg/ml, Upstate Biotech). […] Muscle extract was supplemented at 30 µg/ml. Compound III-3 was prepared as a 4mM stock solution in DMSO and stored protected from light at 4°C. The final concentration of DMSO in treated and control cultures was 0.125%.
# Neurons were plated in 35 mm culture dishes with grids (Nunc). Selected areas of each dish comprising together about 10% of the surface scanned for the presence of phase bright cells immediately after plating and again after 48 h to assess survival percentages. Cell survival was confirmed by vital staining with trypan blue (not shown).
# JNK = JNK activity immunoprecipitated from THP-1 cells; type: cell-based; details: Homo sapiens, read-out: THP-1 Cells JNK % inh. 500 nM
# Experimental: Assays for JNK activity were performed after immunoprecipitating the JNK protein from an extract of lysed THP-1 cells. Pelleted THP-1 cells were lysed on ice for 15 min in 500 µl of Frac buffer (10 mM Tris-Hcl, pH 7.5,50 mM NaCl, 30 µM sodium pyrophosphate, 1 mg/ml BSA, 1% Triton-X-100). The extract was centrifuged for 10 min at 14K and 5 µl of JNK antibody (Santa Cruz) was added to the supernatant. The extract was rotated for 60 min at 4°C, 75 µl of washed protein A Sepharose (20% w/v in Frac) added and the extract rotated another 30 min to bind the antibody complex to the protein A Sepharose. The protein A Sepharose was washed twice with Frac buffer, once with 20 mM Hepes, pH 7.6, 20 mM MgCl2, 2 mM DTT, then incubated for 15 min at 30° C in 30 µl of kinase buffer (20 mM hepes, 20 mM MgCl2, 2 MM DTT, 1 µg recombinant c-jun, and 2 µM ATP-γ-^32P, 2 µCi. The reaction was terminated by the addition of 10 µl of 4X SDS gel loading buffer, heated for 3 min at 80° C, and the proteins were analyzed on a 10% SDS gel. The gel was dried, exposed to a Phosphorimager plate, and the radioactive bands were analyzed on a Phosphorimager.
# trkA tyrosine kinase = trkA tyrosine kinase (Homo sapiens, UniProt P04629); details: Maroney et al.; Kaneko et al.; cited from earlier work
# Chain of trkA tyrosine kinase (P04629 33-796): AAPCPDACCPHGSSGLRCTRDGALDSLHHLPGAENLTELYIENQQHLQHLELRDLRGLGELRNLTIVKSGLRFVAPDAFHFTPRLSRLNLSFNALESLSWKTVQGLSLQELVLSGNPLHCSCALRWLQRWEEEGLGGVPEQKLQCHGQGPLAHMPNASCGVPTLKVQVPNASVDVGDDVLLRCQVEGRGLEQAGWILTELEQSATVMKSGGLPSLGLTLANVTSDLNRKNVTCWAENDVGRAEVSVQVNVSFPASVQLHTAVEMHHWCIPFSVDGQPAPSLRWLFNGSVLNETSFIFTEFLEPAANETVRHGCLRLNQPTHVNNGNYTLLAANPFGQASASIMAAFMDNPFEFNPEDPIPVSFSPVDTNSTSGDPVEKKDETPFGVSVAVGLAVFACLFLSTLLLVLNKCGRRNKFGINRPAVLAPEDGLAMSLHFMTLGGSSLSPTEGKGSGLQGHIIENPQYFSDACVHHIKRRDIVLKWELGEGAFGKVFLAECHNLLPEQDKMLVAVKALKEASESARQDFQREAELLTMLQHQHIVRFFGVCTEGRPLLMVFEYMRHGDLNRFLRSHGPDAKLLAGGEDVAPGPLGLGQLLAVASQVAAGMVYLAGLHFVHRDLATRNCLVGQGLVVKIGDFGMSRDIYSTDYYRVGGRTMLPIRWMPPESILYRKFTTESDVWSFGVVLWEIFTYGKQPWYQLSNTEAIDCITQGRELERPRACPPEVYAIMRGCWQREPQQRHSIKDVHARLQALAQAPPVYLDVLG
# T1 sequence (Q16584 whole entry): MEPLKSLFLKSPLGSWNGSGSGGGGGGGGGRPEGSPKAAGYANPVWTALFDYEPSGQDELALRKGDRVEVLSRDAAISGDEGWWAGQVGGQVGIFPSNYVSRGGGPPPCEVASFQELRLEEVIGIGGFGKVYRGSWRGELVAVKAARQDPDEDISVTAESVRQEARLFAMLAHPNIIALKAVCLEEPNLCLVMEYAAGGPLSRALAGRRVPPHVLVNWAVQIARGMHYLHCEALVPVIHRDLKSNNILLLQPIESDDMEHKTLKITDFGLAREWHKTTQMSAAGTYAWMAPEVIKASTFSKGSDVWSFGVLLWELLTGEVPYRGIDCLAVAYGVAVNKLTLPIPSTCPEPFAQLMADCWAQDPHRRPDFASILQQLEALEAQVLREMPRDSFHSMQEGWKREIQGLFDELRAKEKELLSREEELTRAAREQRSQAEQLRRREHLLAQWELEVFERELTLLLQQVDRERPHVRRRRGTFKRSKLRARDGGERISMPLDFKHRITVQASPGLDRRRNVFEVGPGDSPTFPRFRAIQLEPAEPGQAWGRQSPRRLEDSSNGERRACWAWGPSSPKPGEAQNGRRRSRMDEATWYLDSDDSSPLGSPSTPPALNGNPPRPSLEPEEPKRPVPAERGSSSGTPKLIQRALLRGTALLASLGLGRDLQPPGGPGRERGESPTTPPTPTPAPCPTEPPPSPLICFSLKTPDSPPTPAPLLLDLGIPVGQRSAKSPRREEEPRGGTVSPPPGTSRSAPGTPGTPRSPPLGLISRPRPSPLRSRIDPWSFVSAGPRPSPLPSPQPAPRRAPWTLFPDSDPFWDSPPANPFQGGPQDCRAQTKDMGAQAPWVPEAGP
structure (smiles),measurement,setting,value
CCSCc1ccc2c(c1)c1c3c(c4c5cc(CSCC)ccc5n5c4c1n2C1CC(O)(C(=O)OC)C5(C)O1)CNC3=O (centres unmarked) [III-3],inhibition at 0.5 µM,"MLK-3; 500 nM for 2hr, control is JNK activity in the presence of DMSO, read-out: % Inhibition of JNK Activity (average) MLK3 in Cos7 cells",94%
same,inhibition at 0.5 µM,MLK-3; read-out: Overexpressed MLK3 in Cos 7 Cells JNK % inh. 500 nM,94%
same,potency in mediating survival in motor neuron-enriched cultures relative to K-252a,motoneurons,approximately fivefold
same,motoneurons survived,"chick motoneurons; after 48 h, Compound III-3 300 nM, serum-free conditions, muscle extract 30 µg/ml",79%
same,motoneurons alive,chick motoneurons; after four days in culture,56%
same,concentration of maximal survival effect,"chick motoneurons; serum-free conditions, higher concentrations showed a progressively reduced effect",300 nM
same,inhibition at 0.5 µM,JNK,93%
same,inhibitory activity against trkA tyrosine kinase,trkA tyrosine kinase,did not exhibit inhibitory activity
